Assays:
adenosine A3 receptor = molecular target: T1, adenosine A3 receptor (Homo sapiens, UniProt P0DMS8); test: Radioligand competition binding assay, adenosine A3 receptor ([3H]-NECA); set-up: PEI (potency efficiency index), ligand efficiency for A3 receptor: dose or concentration left out as unconfirmed; conditions: for PEI (potency efficiency index), ligand efficiency for A3 receptor: PEI = (inhibition, ratio) / (MW, kD); for inhibition at 10 µM: read-out: % Inhib. 10 μM A3
T1 sequence (P0DMS8 1-318): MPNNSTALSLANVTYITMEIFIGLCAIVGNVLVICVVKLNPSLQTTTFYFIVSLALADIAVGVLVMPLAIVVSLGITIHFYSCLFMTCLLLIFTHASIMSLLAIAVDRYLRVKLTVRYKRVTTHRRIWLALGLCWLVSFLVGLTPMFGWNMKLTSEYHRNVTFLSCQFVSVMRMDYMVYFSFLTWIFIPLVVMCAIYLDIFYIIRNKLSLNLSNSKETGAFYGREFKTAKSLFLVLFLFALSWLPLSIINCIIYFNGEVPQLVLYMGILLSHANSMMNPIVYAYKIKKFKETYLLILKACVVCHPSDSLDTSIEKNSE
Protocol: (§1) The 10 mM stock solutions were prepared by dissolving 0.5–1 mg of the tested compounds in suitable volume of DMSO. Next, dilutions in binding buffer were prepared to obtain concentration ranges 10^−10–10^−5 or 10^−9–10^−4 depending upon the compound potency. The concentration-response curves of the standard controls were made.
Non-specific binding was determined in the presence of R-PIA 100 μM (Sigma P4532, St. Louis, MO, USA). The reaction mixture (Vt: 200 μL/well) was incubated at 25 °C for 180 min, after was filtered and washed six times with 250 μL wash buffer (Tris-HCl 50 mM pH = 7.4), before measuring in a microplate beta scintillation counter (Microbeta Trilux, PerkinElmer, Madrid, Spain).

adenosine A2A receptor = adenosine A2A receptor (Homo sapiens, UniProt P29274); conditions: read-out: % Inhib. 10 μM A2A
Sequence of adenosine A2A receptor (P29274 whole entry): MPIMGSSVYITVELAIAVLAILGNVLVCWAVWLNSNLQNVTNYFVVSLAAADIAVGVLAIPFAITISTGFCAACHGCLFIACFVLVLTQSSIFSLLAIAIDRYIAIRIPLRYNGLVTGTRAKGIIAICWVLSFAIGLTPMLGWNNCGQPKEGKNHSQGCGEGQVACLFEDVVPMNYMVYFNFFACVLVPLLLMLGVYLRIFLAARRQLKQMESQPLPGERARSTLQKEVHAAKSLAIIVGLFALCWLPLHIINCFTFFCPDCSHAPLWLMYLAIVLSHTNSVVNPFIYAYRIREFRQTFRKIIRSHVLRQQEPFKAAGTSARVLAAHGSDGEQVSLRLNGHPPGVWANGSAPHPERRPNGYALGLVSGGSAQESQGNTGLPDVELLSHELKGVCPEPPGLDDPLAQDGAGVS
Protocol: As the standard control for the studied receptor-binding CGS15943, non-nucleoside agonist was applied. Non-specific binding was determined in the presence of NECA.
as §1
Non-specific binding was determined in the presence of NECA 50 μM (Sigma E2387, St. Louis, MO, USA).

With Nc1ncnc2c1ncn2[C@@H]1O[C@H](CO)[C@@H](O)[C@H]1OCOCCCc1ccccc1 [Compound 12, 2′-O-(3-Phenylpropyleneoxymethyl)-adenosine] the Ki (adenosine A3 receptor) was 2210 nM, the “PEI (potency efficiency index), ligand efficiency for A3 receptor” value (shortened to “PEI (potency efficiency index)”) (adenosine A3 receptor) was 1.61 and the inhibition at 10 µM (adenosine A3 receptor) was 67 ± 1%. The inhibition at 10 µM (adenosine A2A receptor) was 2 ± 1%.
In the case of CC[C@@H]1Cn2c(c3nc(-c4cc(Cl)cc(Cl)c4Cl)nc-3n(C)c2=O)N1.Cl [PSB 10 hydrochloride, reference compound], the “PEI (potency efficiency index)” value (adenosine A3 receptor) is reported as 2.51.
For OC[C@H]1O[C@@H](n2cnc3c(NCCCc4ccccc4)ncnc32)[C@H](O)[C@@H]1O [Compound 4], the Ki (adenosine A3 receptor) was 7.5 nM, the “PEI (potency efficiency index)” value (adenosine A3 receptor) was 2.54 and the inhibition at 10 µM (adenosine A3 receptor) was 98 ± 1%. The inhibition at 10 µM (adenosine A2A receptor) was 32 ± 1%.
Nc1ncnc2c1ncn2[C@H]1C[C@H](O)[C@@H](CO)O1 [2′-deoxyadenosine, reference compound] was tested, and the “PEI (potency efficiency index)” value (adenosine A3 receptor) was 0.20, the inhibition at 10 µM (adenosine A3 receptor) was 5 ± 1% and the inhibition at 10 µM (adenosine A2A receptor) was 3 ± 1%.

Source: article PMC6222516 (Molecules : A Journal of Synthetic Chemistry and Natural …, 2018)
